Results: patent publication US12202835B2, “Substituted aromatic ring-linked dioxinoquinazolines and dioxinoquinolines as kinase inhibitors” (BEIJING SCITECH-MQ PHARMACEUTICALS LIMITED, priority 2018, dated 2025)

Experiments:
TRKA kinase = TRKA kinase (Homo sapiens (Human), UniProt P04629); assay: Assay of small molecular compounds for inhibiting the activity of TRKA kinase (LANCE TR-FRET); format: biochemical
How it was run: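 LANCE TR-FRET with ULight-TK peptide; compounds pre-incubated 5 min with TRKA (2× solution 2 nM), then substrate/ATP added (4× mix: 400 nM peptide, 40 μM ATP). Reaction 60 min at room temperature in dark, 1% DMSO final; stopped, detection developed 60 min, signal read.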

Ba/F3 LMNA-NTRK1 cells = assay: Assay for inhibiting the proliferation of Ba/F3 LMNA-NTRK1 cells (CCK-8); format: cell-based; conditions: Mus musculus, BaF3
Procedure: In particular, the method of the assay of small molecular compounds for inhibiting cell proliferation is as follows: • 1. Cells cultured to a logarithmic growth phase (adherent cells need to be digested with trypsin and neutralized) were taken, pipetted evenly, transferred to a 15 mL centrifuge tube, and centrifuged at 1000 rpm at room temperature for 4 minutes; • 2. The supernatant was discarded; 5 mL of complete medium was added and pipetted evenly; 10 μL of cell suspension was taken out, mixed well with 10 μL of 0.4% trypan blue, and counted under a cell counter; the proportion of living cells was ensured to be above 90%; • 3. 80 μL of cell suspension per well was seeded into a 96-well plate according to the conditions shown in the attached table, and cultured overnight; in the outer 36 wells of the 96-well plate, no cells were added but only sterile water was added; only the inner 60 wells were used for cell assay and control; • 4. […] 20 μL of the corresponding compounds with different concentration gradients were added to each well of assay wells of the 96-well plate; 20 μL of complete medium was added to positive and negative control wells and shaken well; and the final concentration of DMSO in each well was 0.25%; • 6. After 72 hours of incubation, 10 μL of CCK-8 reagent was added to each well and further incubated at 37° C. for 1-2 hours; and the OD value was read at 450 nm; • 7. Cell survival rate (%)=[(As−Ab)/(Ac−Ab)]*100% • As: Assay well (medium containing cells, CCK-8, compound), • Ac: Control well (medium containing cells, CCK-8), • Ab: Blank well (CCK-8, medium without cell and compound), • 8. The values were imported into Graphpad Prism 5 software for IC50 calculation.

[1] = system: Ba/F3 LMNA-NTRK1-G595R cells; assay: Assay for inhibiting the proliferation of Ba/F3 LMNA-NTRK1-G595R cells (CCK-8); format: cell-based; conditions: Mus musculus, BaF3
Procedure: (§1) In particular, the method of the assay of small molecular compounds for inhibiting cell proliferation is as follows: • 1. Cells cultured to a logarithmic growth phase (adherent cells need to be digested with trypsin and neutralized) were taken, pipetted evenly, transferred to a 15 mL centrifuge tube, and centrifuged at 1000 rpm at room temperature for 4 minutes; • 2. The supernatant was discarded; 5 mL of complete medium was added and pipetted evenly; 10 μL of cell suspension was taken out, mixed well with 10 μL of 0.4% trypan blue, and counted under a cell counter; the proportion of living cells was ensured to be above 90%; • 3. 80 μL of cell suspension per well was seeded into a 96-well plate according to the conditions shown in the attached table, and cultured overnight; in the outer 36 wells of the 96-well plate, no cells were added but only sterile water was added; only the inner 60 wells were used for cell assay and control; • 4. 5×compound dilution: the compounds were serially diluted 3-fold to obtain a total of 9 concentrations; 80-fold overall dilution was completed with complete medium, the resulting concentration was 5 times the final drug concentration, and DMSO concentration was 1.25%; • 5. 20 μL of the corresponding compounds with different concentration gradients were added to each well of assay wells of the 96-well plate; 20 μL of complete medium was added to positive and negative control wells and shaken well; and the final concentration of DMSO in each well was 0.25%; • 6. After 72 hours of incubation, 10 μL of CCK-8 reagent was added to each well and further incubated at 37° C. for 1-2 hours; and the OD value was read at 450 nm; • 7. Cell survival rate (%)=[(As−Ab)/(Ac−Ab)]*100% • As: Assay well (medium containing cells, CCK-8, compound), • Ac: Control well (medium containing cells, CCK-8), • Ab: Blank well (CCK-8, medium without cell and compound), • 8. The values were imported into Graphpad Prism 5 software for IC50 calculation.

MHCC97H cells = assay: Assay for inhibiting the proliferation of MHCC97H cells (CCK-8); format: cell-based; conditions: Homo sapiens
Procedure: as §1

EBC1 cells = assay: Assay for inhibiting the proliferation of EBC1 cells (CCK-8); format: cell-based; conditions: Homo sapiens, EBC-1
Procedure: as §1

Ba/F3-AXL cells = assay: Assay for inhibiting the proliferation of Ba/F3-AXL cells (CCK-8); format: cell-based; conditions: 72 hours of incubation, medium with 100 ng/mL hGas6, CCK-8
Procedure: The values were then imported into Graphpad Prism 5 software for curve fitting, and IC50 was calculated.

VEGFR-2 kinase = VEGFR-2 kinase (Homo sapiens (Human), UniProt P35968); assay: Assay of small molecular compounds for inhibiting the activity of VEGFR-2 kinase (LANCE TR-FRET); format: biochemical; conditions: read-out: VEGFR2 IC50
How it was run: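 LANCE TR-FRET with human VEGFR-2 (2× stock 0.5 nM) preincubated 30 min with compound (final 2500 to 0.042 nM, 11-point 3-fold), then ULight-JAK-1 (Tyr1023) peptide/ATP added (4× stocks 200 nM/40 μM). Reaction 60 min room temperature, 4% DMSO; IC50 from inhibition-rate curve.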

c-MET kinase = c-MET kinase (Homo sapiens (Human), UniProt P08581); assay: Assay of small molecular compounds for inhibiting the activity of c-MET kinase (LANCE TR-FRET); format: biochemical; conditions: read-out: CMET IC50
How it was run: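 LANCE TR-FRET assay with c-MET at 1 nM final after a 5 min room-temperature preincubation with compound (11-point, 3-fold series, 2500–0.042 nM final, 4% DMSO). ULight-JAK-1 (Tyr1023) peptide (100 nM final) and ATP (10 μM final) reacted 60 min in the dark. Inhibition was taken relative to controls, then IC50 fitted.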

TRKA kinase, sequence (P04629 33-796): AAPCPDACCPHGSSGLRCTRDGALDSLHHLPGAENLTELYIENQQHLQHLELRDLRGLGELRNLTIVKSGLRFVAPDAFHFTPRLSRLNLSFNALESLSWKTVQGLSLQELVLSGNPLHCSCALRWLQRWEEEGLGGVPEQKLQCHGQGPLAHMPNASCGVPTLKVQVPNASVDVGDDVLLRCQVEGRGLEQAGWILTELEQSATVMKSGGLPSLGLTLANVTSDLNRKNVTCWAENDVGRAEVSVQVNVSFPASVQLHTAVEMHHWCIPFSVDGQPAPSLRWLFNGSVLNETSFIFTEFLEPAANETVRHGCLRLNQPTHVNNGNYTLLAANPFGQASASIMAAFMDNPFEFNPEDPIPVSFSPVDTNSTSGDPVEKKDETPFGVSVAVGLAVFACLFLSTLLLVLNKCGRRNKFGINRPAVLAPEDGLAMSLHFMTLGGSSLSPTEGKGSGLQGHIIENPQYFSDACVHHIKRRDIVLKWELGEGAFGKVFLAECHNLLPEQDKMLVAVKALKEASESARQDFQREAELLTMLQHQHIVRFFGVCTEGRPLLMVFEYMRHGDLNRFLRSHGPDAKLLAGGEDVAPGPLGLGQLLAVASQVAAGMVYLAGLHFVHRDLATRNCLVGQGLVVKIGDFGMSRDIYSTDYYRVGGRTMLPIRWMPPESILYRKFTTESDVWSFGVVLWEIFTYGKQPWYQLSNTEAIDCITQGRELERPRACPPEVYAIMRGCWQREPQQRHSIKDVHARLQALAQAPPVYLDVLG
c-MET kinase, sequence (P08581 25-1390): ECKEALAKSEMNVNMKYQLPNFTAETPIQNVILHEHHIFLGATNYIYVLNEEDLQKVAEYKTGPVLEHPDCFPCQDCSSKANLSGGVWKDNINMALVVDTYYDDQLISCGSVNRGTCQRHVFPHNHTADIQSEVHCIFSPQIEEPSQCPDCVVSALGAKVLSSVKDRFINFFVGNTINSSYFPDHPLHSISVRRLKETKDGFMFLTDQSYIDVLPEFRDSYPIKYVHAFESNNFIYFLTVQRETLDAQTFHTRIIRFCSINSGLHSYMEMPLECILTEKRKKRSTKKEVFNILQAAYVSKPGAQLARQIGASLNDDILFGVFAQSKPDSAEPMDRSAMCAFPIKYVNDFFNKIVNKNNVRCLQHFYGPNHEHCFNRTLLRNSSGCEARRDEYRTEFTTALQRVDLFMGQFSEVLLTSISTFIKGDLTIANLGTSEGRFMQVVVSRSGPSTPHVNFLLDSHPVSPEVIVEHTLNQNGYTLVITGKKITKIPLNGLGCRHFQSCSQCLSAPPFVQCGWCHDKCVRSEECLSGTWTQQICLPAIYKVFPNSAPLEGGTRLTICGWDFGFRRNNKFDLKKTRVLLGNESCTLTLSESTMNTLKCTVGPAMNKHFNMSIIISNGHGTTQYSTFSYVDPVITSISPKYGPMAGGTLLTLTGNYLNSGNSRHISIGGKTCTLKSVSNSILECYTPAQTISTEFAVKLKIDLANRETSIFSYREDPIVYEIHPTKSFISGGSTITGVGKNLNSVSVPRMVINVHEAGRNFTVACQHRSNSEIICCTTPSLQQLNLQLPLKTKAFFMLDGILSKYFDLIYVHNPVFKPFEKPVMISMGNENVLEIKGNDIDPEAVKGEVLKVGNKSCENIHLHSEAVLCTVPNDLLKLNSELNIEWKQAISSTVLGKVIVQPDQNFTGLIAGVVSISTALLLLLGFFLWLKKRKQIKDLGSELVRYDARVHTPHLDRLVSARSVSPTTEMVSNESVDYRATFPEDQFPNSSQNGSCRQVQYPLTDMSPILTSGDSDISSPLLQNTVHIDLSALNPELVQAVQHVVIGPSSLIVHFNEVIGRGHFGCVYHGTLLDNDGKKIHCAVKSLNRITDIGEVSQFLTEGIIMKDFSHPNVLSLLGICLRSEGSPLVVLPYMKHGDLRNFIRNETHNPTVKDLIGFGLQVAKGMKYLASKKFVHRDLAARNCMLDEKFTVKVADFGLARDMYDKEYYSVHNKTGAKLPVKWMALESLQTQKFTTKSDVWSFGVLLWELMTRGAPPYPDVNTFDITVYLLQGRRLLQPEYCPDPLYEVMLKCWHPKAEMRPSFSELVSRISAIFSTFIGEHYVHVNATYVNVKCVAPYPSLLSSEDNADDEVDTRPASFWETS
VEGFR-2 kinase, sequence (P35968 20-1356): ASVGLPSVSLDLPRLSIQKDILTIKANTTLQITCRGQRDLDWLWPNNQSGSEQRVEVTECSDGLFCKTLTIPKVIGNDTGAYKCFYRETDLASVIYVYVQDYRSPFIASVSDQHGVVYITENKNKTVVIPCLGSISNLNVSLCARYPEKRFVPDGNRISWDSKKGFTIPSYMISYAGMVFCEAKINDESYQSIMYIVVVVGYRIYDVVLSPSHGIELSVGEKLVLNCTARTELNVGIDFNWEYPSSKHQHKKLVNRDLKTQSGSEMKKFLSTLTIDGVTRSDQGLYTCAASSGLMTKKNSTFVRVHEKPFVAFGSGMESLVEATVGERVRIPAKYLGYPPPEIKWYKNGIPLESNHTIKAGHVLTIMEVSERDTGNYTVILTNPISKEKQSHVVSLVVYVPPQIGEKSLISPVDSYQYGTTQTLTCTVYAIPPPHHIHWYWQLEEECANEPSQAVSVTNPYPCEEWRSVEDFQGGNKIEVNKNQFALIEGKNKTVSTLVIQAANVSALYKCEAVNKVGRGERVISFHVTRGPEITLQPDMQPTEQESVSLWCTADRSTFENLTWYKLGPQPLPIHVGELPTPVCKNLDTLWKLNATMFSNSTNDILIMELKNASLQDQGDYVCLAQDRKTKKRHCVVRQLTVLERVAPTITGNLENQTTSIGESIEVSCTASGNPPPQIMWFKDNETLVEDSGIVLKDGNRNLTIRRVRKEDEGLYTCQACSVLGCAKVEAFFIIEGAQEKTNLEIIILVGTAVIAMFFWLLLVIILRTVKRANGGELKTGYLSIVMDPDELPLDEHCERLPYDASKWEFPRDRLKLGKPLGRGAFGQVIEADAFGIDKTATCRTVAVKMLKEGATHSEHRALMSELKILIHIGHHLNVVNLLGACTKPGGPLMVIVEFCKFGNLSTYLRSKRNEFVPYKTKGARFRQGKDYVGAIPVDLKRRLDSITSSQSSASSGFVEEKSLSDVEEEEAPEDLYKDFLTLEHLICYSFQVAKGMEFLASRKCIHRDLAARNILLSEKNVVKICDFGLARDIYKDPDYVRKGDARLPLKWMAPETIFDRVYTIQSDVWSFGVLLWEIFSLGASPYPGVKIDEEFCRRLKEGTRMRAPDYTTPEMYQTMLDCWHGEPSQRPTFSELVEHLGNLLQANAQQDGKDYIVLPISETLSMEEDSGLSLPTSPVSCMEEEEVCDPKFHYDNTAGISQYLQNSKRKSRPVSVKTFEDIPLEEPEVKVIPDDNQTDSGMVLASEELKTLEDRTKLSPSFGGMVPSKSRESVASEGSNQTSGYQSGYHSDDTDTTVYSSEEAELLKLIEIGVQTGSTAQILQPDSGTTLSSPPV

| IC50 (TRKA kinase) | IC50 (Ba/F3 LMNA-NTRK1 cells) | IC50 [1] | IC50 (Ba/F3-AXL cells) | IC50 (VEGFR-2 kinase) | IC50 (c-MET kinase) | Structure (SMILES) | IC50 (MHCC97H cells) | IC50 (EBC1 cells) |
| --- | --- | --- | --- | --- | --- | --- | --- | --- |
| 0.05 to 0.5 µM | 0.2 to 1 µM | > 1 µM |  |  |  | Cn1cc(C(=O)Nc2ccc(Oc3ccnc4ccc5c(c34)OCCO5)cc2)c(=O)n(-c2ccc(F)cc2)c1=O [Example 158, N-(4-((2,3-dihydro-[1,4]dioxino[2,3-f]quinolin-10-yl)oxy)phenyl)-3-(4-fluorophenyl)-1-methyl-2,4-dioxo-1,2,3,4-tetrahydropyrimidine-5-carboxamide] |  |  |
|  | < 0.05 µM | 0.05 to 0.2 µM | < 0.05 µM | 0.05 to 0.5 µM |  | CN(C)CCCOc1cc2nccc(Oc3ccc(NC(=O)c4cn(C)c(=O)n(-c5ccc(F)cc5)c4=O)cc3F)c2c2c1OCCO2 [Example 86, N-(3-fluoro-4-((5-((3-dimethylamino)propoxy)-2,3-dihydro-[1,4]dioxino[2,3-f]quinolin-10-yl)oxy)phenyl)-3-(4-fluorophenyl)-1-methyl-2,4-dioxo-1,2,3,4-tetrahydropyrimidine-5-carboxamide] | 0.05 to 0.2 µM | ≤ 0.05 µM |
| < 0.05 µM | < 0.05 µM | 0.05 to 0.2 µM |  |  |  | Cc1cc(Oc2ccnc3ccc4c(c23)OCCO4)c(F)cc1NC(=O)c1cn(C)c(=O)n(-c2ccc(F)cc2)c1=O [Example 175, N-(4-((2,3-dihydro-[1,4]dioxino[2,3-f]quinolin-10-yl)oxy)-5-fluoro-2-methylphenyl)-3-(4-fluorophenyl)-1-methyl-2,4-dioxo-1,2,3,4-tetrahydropyrimidine-5-carboxamide] |  |  |
| < 0.05 µM | < 0.05 µM | 0.05 to 0.2 µM |  |  | ≤ 0.05 µM | CCn1cc(C(=O)Nc2ccc(Oc3ccnc4cc(OC)c5c(c34)OCCO5)cc2F)c(=O)n(-c2ccc(F)cc2)c1=O [Example 154, N-(2-fluoro-4-((5-methoxy-2,3-dihydro-[1,4]dioxino[2,3-f]quinolin-10-yl)oxy)phenyl)-3-(4-fluorophenyl)-1-ethyl-2,4-dioxo-1,2,3,4-tetrahydropyrimidine-5-carboxamide] |  |  |
| < 0.05 µM | < 0.05 µM | ≤ 0.05 µM |  |  | ≤ 0.05 µM | CCn1cc(C(=O)Nc2cc(F)c(Oc3ccnc4cc(OC)c5c(c34)OCCO5)cc2C)c(=O)n(-c2ccc(F)cc2)c1=O [Example 178, N-(5-fluoro-4-((5-methoxy-2,3-dihydro-[1,4]dioxino[2,3-f]quinolin-10-yl)oxy)-2-methylphenyl)-3-(4-fluorophenyl)-1-ethyl-2,4-dioxo-1,2,3,4-tetrahydropyrimidine-5-carboxamide] | ≤ 0.05 µM |  |
